# Laboratory results published in paper PMC7827406, “Structure–Activity Relationship (SAR) Study of Spautin-1 to Entail the Discovery of Novel NEK4 Inhibitors” (International Journal of Molecular Sciences, 2021).
# Like-named read-outs stand apart in the source and are kept apart here.
# What was measured:
# Assay in all cases: biochemical
# Design in all cases: Eurofins KinaseProfiler full panel at Km ATP, residual kinase activity (%) relative to DMSO
# [1] = molecular target: T1, CK2α1(h) (Homo sapiens, UniProt P68400)
# T1 construct: gene CSNK2A1
# T1 sequence (P68400 whole entry): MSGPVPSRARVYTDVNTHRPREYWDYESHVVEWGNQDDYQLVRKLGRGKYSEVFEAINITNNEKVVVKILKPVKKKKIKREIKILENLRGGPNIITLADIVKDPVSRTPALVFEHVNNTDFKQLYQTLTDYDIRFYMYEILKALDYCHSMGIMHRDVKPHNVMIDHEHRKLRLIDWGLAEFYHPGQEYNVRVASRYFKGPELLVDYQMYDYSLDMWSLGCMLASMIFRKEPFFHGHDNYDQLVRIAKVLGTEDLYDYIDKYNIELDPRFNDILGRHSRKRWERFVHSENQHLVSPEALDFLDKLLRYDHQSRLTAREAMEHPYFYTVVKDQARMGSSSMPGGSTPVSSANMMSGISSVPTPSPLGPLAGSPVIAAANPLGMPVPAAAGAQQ
# Summary of the method: (§1)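 Two 10 µM single-concentration screens were run: a competition-binding screen, in which DNA-tagged kinase bound to immobilized ligands was quantified by qPCR, and a radiometric activity panel at Km ATP. Each is expressed as residual kinase activity (%).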
# [2] = molecular target: T2, DRAK1(h) (Homo sapiens, UniProt Q9UEE5)
# T2 construct: gene STK17A
# T2 sequence (Q9UEE5 1-414): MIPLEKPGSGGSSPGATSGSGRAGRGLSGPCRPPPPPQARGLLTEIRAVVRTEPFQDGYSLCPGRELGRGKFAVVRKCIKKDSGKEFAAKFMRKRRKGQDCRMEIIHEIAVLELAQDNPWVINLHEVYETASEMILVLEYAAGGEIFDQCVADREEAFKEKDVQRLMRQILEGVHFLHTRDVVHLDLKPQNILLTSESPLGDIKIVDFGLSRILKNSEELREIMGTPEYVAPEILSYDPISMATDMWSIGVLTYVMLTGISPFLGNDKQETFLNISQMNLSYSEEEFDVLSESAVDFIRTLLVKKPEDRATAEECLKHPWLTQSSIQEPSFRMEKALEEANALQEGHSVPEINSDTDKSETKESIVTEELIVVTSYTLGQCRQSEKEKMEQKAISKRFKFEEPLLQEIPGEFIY
# Summary of the method: as §1
# [3] = molecular target: T3, MEK1(h) (Homo sapiens, UniProt Q02750)
# T3 construct: gene MAP2K1
# T3 sequence (Q02750 whole entry): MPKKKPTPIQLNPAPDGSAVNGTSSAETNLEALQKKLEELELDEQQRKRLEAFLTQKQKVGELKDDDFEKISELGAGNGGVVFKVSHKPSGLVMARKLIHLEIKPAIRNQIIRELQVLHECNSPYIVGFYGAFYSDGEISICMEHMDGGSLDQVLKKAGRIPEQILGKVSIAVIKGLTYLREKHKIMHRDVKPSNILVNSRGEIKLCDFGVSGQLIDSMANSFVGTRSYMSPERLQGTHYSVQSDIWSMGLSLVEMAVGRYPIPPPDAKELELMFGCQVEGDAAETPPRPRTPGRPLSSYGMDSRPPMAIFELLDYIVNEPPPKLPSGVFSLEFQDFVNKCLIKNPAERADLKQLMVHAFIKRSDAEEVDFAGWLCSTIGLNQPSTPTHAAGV
# Summary of the method: as §1
# [4] = molecular target: T4, PKCμ(h) (Homo sapiens, UniProt Q15139)
# T4 construct: gene PRKD1
# T4 sequence (Q15139 1-912): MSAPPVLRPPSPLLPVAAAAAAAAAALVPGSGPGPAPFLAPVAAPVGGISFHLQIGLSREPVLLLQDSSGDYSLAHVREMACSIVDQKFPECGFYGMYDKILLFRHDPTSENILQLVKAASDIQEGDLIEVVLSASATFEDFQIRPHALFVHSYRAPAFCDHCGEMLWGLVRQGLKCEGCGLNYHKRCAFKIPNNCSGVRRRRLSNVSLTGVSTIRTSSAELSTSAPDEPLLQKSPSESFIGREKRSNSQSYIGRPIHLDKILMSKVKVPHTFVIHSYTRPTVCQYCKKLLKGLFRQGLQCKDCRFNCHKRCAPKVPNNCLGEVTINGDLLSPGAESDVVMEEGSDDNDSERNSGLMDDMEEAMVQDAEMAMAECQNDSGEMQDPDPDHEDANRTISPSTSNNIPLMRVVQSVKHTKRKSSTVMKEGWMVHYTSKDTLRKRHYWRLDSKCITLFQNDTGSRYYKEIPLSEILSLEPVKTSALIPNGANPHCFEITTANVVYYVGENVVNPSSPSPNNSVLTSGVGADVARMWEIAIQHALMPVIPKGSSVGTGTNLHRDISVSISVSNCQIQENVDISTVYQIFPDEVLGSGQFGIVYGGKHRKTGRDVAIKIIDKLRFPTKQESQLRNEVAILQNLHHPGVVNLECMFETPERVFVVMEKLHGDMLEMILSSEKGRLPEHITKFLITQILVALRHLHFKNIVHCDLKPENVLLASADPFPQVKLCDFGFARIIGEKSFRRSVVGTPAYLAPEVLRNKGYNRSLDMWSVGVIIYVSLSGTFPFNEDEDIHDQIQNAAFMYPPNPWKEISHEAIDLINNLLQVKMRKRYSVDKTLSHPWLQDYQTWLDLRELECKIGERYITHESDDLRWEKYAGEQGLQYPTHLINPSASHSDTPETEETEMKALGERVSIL
# Summary of the method: as §1
# [5] = molecular target: Ret(h) (Homo sapiens, UniProt P07949)
# Ret(h), sequence (P07949 whole entry): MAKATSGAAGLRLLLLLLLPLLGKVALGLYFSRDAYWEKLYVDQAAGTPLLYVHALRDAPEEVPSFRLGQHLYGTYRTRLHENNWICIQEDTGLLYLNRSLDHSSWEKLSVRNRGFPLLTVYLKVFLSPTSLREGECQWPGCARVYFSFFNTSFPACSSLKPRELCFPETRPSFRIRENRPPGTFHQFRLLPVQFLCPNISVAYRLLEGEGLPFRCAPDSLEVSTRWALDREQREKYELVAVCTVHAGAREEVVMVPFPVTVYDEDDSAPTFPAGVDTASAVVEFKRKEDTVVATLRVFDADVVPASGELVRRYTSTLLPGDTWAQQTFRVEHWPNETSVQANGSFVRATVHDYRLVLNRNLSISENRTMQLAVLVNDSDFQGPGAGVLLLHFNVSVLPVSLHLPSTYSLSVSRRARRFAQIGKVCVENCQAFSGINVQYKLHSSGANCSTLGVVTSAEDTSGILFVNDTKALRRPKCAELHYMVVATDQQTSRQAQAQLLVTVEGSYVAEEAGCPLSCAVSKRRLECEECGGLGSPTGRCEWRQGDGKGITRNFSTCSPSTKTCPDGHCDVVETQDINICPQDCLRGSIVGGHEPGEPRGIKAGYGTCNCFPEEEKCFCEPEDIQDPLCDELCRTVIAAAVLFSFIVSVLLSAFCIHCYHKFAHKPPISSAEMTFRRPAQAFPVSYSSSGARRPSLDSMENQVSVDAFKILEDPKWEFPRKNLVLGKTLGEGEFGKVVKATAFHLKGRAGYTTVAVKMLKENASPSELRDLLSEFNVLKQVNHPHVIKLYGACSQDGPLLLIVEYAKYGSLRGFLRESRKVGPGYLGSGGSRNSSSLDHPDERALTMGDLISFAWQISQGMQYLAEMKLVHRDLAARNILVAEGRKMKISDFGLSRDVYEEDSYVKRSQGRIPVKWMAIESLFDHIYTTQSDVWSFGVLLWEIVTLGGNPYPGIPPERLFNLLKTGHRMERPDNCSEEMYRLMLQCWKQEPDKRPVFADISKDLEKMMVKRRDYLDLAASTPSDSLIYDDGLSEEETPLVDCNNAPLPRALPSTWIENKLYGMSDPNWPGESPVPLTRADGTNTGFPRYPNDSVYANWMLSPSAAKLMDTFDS
# Summary of the method: as §1
# [6] = molecular target: STK39(h) (Homo sapiens, UniProt Q9UEW8)
# Summary of the method: as §1
# [7] = molecular target: T5, TSSK4(h) (Homo sapiens, UniProt Q6SA08)
# T5 sequence (Q6SA08 1-328): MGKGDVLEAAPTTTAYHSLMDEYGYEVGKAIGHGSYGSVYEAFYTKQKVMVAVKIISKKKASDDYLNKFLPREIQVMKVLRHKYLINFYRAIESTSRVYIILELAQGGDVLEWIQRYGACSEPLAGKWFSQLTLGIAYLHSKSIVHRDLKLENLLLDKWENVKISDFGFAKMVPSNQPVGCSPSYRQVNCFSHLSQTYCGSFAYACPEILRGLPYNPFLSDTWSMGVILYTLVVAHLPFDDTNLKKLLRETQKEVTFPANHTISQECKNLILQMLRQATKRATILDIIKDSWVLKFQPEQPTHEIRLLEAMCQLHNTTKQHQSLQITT
# Summary of the method: as §1
# [8] = read-out: Residual activity (%) Spautin-1 5aa
# [9] = read-out: Residual activity (%) 5as
# [10] = read-out: Residual activity (%) 5at
# [11] = read-out: Residual activity (%) 5ay
structure (smiles),measurement,setting,value
"Fc1ccc(CNc2ncnc3ccc(F)cc23)cc1 [5aa, 6-Fluoro-N-(4-fluorobenzyl)-4-Quinazolinamine]",remaining activity at 10 µM,[1]; [8],105%
same,remaining activity at 10 µM,[2]; [8],98%
same,remaining activity at 10 µM,[3]; [8],91%
same,remaining activity at 10 µM,[4]; [8],97%
same,remaining activity at 10 µM,[5]; [8],69%
same,remaining activity at 10 µM,[6]; [8],75%
same,remaining activity at 10 µM,[7]; [8],89%
"Fc1ccc(CCNc2ncnc3ccc(F)cc23)cc1 [5as, 6-Fluoro-N-[2-(4-Fluorophenyl)Ethyl]-4-Quinazolinamine]",remaining activity at 10 µM,[1]; [9],84%
same,remaining activity at 10 µM,[2]; [9],79%
same,remaining activity at 10 µM,[3]; [9],84%
same,remaining activity at 10 µM,[4]; [9],85%
same,remaining activity at 10 µM,[5]; [9],99%
same,remaining activity at 10 µM,[6]; [9],100%
same,remaining activity at 10 µM,[7]; [9],112%
"Fc1ccc2ncnc(NCCc3ccc(Cl)cc3)c2c1 [5at, N-[2-(4-Chlorophenyl)Ethyl]-6-Fluoro-4-Quinazolinamine]",remaining activity at 10 µM,[1]; [10],78%
same,remaining activity at 10 µM,[2]; [10],85%
same,remaining activity at 10 µM,[3]; [10],73%
same,remaining activity at 10 µM,[4]; [10],80%
same,remaining activity at 10 µM,[5]; [10],62%
same,remaining activity at 10 µM,[6]; [10],91%
same,remaining activity at 10 µM,[7]; [10],125%
"COc1ccc2ncnc(Nc3cccc(F)c3)c2c1 [5ay, N-(3-Fluorophenyl)-6-Methoxy-4-Quinazolinamine]",remaining activity at 10 µM,[2]; [11],57%
same,remaining activity at 10 µM,[3]; [11],93%
same,remaining activity at 10 µM,[4]; [11],93%
same,remaining activity at 10 µM,[5]; [11],43%
same,remaining activity at 10 µM,[6]; [11],114%
same,remaining activity at 10 µM,[7]; [11],134%
